In test [1] the target is T1, Dual specificity tyrosine-phosphorylation-regulated kinase 2 (Homo sapiens) (UniProt Q92630).
T1 sequence (whole entry): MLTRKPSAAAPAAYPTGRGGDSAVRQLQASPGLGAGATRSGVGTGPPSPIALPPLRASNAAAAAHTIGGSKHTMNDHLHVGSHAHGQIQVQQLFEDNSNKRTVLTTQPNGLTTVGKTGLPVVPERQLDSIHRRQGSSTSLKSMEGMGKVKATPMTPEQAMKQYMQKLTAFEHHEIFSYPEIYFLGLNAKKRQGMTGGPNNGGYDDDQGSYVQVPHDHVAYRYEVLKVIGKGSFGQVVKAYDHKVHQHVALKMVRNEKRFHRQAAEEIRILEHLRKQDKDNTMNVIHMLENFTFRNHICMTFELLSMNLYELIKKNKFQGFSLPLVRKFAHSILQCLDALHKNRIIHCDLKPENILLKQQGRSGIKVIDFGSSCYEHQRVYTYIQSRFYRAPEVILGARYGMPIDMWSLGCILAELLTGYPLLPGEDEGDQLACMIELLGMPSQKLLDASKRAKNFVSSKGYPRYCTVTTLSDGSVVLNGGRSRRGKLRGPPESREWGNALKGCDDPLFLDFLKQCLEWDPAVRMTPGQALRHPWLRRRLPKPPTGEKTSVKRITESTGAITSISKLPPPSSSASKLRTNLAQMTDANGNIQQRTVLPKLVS
In words: Inhibition of DYRK2 (unknown origin) at 10 uM after 120 mins P33 radiolabeled kinase activity assay.

The target in test [2] is Mitogen-activated protein kinase 1 (Homo sapiens) (UniProt P28482). In words: Inhibition of ERK2 (unknown origin) at 10 uM after 120 mins P33 radiolabeled kinase activity assay.
Test [3] deals with T2, NUAK family SNF1-like kinase 2 (Homo sapiens) (UniProt Q9H093).
T2 sequence (whole entry): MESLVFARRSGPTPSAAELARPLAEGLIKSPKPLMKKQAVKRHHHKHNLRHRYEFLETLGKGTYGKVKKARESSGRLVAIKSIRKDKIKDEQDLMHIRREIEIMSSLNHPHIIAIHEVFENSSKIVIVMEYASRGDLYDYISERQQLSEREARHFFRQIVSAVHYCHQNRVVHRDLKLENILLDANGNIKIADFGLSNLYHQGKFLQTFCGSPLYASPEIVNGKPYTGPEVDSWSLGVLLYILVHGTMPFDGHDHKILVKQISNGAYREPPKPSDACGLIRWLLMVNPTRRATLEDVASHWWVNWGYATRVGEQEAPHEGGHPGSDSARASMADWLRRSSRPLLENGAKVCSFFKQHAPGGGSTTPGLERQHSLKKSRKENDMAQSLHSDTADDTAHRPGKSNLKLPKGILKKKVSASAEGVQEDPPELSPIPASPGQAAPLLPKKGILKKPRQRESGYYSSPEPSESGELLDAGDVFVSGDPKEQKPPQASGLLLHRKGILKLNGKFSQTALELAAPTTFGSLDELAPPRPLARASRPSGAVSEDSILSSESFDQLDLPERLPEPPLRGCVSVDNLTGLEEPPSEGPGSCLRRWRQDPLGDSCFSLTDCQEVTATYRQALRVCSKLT
In words: Inhibition of SNARK (unknown origin) at 10 uM after 120 mins P33 radiolabeled kinase activity assay.

Test [4] concerns the target Dual specificity testis-specific protein kinase 1 (Homo sapiens) (UniProt Q15569). The test is described as follows: Inhibition of TESK1 (unknown origin) at 10 uM after 120 mins P33 radiolabeled kinase activity assay.
For test [5], the target named is T3, Tyrosine-protein kinase receptor TYRO3 (Homo sapiens) (UniProt Q06418).
T3 sequence (whole entry): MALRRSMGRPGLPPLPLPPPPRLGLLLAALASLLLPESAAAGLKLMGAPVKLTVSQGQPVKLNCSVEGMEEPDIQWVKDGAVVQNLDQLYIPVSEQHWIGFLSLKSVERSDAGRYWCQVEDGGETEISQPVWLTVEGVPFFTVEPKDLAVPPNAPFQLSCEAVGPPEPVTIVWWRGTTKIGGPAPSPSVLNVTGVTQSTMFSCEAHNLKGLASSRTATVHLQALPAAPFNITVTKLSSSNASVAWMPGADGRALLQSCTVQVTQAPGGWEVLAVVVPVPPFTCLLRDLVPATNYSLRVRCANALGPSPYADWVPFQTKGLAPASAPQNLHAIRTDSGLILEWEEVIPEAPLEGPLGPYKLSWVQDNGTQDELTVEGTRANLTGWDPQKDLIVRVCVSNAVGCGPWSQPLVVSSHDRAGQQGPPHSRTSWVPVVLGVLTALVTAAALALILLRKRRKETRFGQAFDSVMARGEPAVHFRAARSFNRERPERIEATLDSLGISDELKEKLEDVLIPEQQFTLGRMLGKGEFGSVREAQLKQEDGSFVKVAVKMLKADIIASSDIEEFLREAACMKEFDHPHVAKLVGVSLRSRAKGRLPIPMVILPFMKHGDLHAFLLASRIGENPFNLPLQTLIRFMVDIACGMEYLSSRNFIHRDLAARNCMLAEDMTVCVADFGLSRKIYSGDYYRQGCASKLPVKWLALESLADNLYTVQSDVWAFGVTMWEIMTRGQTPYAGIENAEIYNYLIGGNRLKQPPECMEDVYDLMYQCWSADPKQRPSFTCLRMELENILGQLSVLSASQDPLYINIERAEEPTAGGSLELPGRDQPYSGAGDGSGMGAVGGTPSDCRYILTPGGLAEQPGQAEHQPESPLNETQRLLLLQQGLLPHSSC
In words: Inhibition of TYRO3 (unknown origin) at 10 uM after 120 mins P33 radiolabeled kinase activity assay.

The target in test [6] is Proto-oncogene tyrosine-protein kinase Src (Homo sapiens) (UniProt P12931). The test is described as follows: Inhibition of c-Src (unknown origin) at 10 uM after 120 mins P33 radiolabeled kinase activity assay.
Proto-oncogene tyrosine-protein kinase Src (Homo sapiens), sequence (P12931 2-536 limits assumed): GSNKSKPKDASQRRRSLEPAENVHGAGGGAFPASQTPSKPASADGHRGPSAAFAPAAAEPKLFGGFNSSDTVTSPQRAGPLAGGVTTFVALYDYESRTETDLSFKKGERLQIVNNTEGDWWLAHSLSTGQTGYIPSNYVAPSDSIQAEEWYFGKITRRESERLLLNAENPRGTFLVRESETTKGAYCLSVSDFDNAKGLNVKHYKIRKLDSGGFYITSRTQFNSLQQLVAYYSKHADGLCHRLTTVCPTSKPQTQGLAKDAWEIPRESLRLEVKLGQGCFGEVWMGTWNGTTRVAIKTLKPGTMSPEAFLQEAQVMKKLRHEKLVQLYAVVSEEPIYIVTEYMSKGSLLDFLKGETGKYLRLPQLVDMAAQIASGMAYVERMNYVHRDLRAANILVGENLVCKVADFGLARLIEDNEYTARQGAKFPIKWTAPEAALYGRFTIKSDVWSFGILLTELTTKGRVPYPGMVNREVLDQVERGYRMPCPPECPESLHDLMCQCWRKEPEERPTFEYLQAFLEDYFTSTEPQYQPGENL

Dual specificity testis-specific protein kinase 1 (Homo sapiens), sequence (Q15569 whole entry, looked up): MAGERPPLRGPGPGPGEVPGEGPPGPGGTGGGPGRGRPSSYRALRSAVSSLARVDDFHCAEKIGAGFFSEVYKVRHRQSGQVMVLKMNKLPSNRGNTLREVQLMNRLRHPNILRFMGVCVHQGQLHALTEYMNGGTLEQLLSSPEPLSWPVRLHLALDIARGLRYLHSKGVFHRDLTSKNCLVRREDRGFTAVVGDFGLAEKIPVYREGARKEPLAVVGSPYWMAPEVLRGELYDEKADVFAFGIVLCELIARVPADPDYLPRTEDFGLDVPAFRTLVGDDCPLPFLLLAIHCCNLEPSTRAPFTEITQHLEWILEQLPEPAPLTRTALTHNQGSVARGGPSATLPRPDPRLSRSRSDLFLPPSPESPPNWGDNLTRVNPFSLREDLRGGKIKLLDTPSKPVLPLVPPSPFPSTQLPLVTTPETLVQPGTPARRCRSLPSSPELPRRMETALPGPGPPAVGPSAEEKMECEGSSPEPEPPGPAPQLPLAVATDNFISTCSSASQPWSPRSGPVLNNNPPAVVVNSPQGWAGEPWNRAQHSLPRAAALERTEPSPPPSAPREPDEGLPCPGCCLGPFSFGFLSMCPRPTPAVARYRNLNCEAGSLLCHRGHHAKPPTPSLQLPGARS
Mitogen-activated protein kinase 1 (Homo sapiens), sequence (P28482 whole entry): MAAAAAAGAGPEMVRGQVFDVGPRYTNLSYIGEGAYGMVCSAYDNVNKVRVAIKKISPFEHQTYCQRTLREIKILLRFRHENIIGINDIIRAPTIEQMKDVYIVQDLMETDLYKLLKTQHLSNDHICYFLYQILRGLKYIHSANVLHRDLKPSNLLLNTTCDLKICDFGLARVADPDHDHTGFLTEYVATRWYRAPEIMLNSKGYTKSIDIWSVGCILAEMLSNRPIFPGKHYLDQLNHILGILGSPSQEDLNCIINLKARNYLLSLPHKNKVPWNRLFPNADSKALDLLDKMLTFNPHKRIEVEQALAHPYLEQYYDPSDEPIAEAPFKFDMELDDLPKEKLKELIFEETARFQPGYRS

With `CS(=O)(=O)c1cccc(Nc2nccc(-c3sc(N4CCOCC4)nc3-c3cccc(NS(=O)(=O)c4c(F)cccc4F)c3)n2)c1`, the inhibition (commonly the relative decrease from the control value, in per cent) was 37.4% in test [1]; -2.5% in test [2]; 2.62% in test [3]; 97% in test [4]; 79.5% in test [5]; 99.1% in test [6].

As for `CC(C)(C)c1cc(NC(=O)Nc2ccc(Oc3ccncc3)cc2)no1`, the inhibition was 77.8% in test [1]; -0.63% in test [2]; -1.05% in test [3]; 20% in test [4]; 60.7% in test [5]; 85.8% in test [6].

On to `COCCNC(=O)c1ccc2c(c1)nc(-c1cnc(-c3ccc(Cl)cc3)[nH]1)n2CCOC`, for which the inhibition in test [1] stood at 11.5%; in test [2] it was 1.34%; in test [3], 2.98%; in test [4], 4.86%; in test [5], 12.8%; in test [6] it was 81.1%.

The values are drawn from ChEMBL document CHEMBL3627608, “Crystal structures of human RIP2 kinase catalytic domain complexed with ATP-competitive inhibitors: Foundations for understanding inhibitor selectivity” (Bioorg Med Chem, 2015).
